Data reported in PubChem BioAssay (NCI).
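1) Cells in 96-well plates. 2) Compound, 48 h, 5 concentrations. 3) Linear interpolation between surrounding doses. 4) Unreached endpoint = highest concentration. TGI is the concentration that stops growth completely.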

What was measured:
Assay in all cases: inhibition of tumour cell growth, NCI panel, 48 h
MDA-MB-435 = tested on: MDA-MB-435
UO-31 renal = tested on: UO-31 renal
TK-10 renal = tested on: TK-10 renal
SK-MEL-2 melanoma = tested on: SK-MEL-2 melanoma
UACC-62 melanoma = tested on: UACC-62 melanoma
HOP-62 NSCLC = tested on: HOP-62 NSCLC
COLO 205 colon = tested on: COLO 205 colon
SF-268 CNS = tested on: SF-268 CNS
HT29 colon = tested on: HT29 colon
IGROV1 ovarian = tested on: IGROV1 ovarian
U251 CNS = tested on: U251 CNS
HCT-15 colon = tested on: HCT-15 colon
SK-MEL-5 melanoma = tested on: SK-MEL-5 melanoma
SR leukemia = tested on: SR leukemia
SNB-19 CNS = tested on: SNB-19 CNS
ACHN renal = tested on: ACHN renal
SNB-75 CNS = tested on: SNB-75 CNS
HL-60(TB) leukemia = tested on: HL-60(TB) leukemia
786-0 renal = tested on: 786-0 renal
HS 578T breast = tested on: HS 578T breast
LOX IMVI melanoma = tested on: LOX IMVI melanoma
BT-549 breast = tested on: BT-549 breast
NCI/ADR-RES ovarian = tested on: NCI/ADR-RES ovarian
MALME-3M melanoma = tested on: MALME-3M melanoma
M14 melanoma = tested on: M14 melanoma
EKVX NSCLC = tested on: EKVX NSCLC
OVCAR-5 ovarian = tested on: OVCAR-5 ovarian
OVCAR-4 ovarian = tested on: OVCAR-4 ovarian
SF-295 CNS = tested on: SF-295 CNS
K-562 leukemia = tested on: K-562 leukemia
A498 renal = tested on: A498 renal
HCC-2998 colon = tested on: HCC-2998 colon
PC-3 prostate = tested on: PC-3 prostate
SK-MEL-28 melanoma = tested on: SK-MEL-28 melanoma
SK-OV-3 ovarian = tested on: SK-OV-3 ovarian
A549 NSCLC = tested on: A549 NSCLC
SF-539 CNS = tested on: SF-539 CNS
NCI-H226 lung = tested on: NCI-H226 lung
SW-620 colon = tested on: SW-620 colon
KM12 colon = tested on: KM12 colon
MDA-N = tested on: MDA-N
MOLT-4 leukemia = tested on: MOLT-4 leukemia
T-47D breast = tested on: T-47D breast
MDA-MB-231 breast = tested on: MDA-MB-231 breast
OVCAR-8 ovarian = tested on: OVCAR-8 ovarian
SN12C renal = tested on: SN12C renal
OVCAR-3 ovarian = tested on: OVCAR-3 ovarian
RXF 393 renal = tested on: RXF 393 renal
NCI-H522 lung = tested on: NCI-H522 lung
NCI-H460 lung = tested on: NCI-H460 lung
CAKI-1 renal = tested on: CAKI-1 renal
DU-145 prostate = tested on: DU-145 prostate
CCRF-CEM leukemia = tested on: CCRF-CEM leukemia
HCT-116 colon = tested on: HCT-116 colon
UACC-257 melanoma = tested on: UACC-257 melanoma
HOP-92 NSCLC = tested on: HOP-92 NSCLC
NCI-H23 lung = tested on: NCI-H23 lung
RPMI-8226 leukemia = tested on: RPMI-8226 leukemia

Question: How did the TGI (MDA-MB-435) turn out when CN1CCc2cc(N)cc3c2C1Cc1ccc(O)c(O)c1-3 (stereo not drawn) was run?
Answer: > 100 µM

Question: What about the TGI (UO-31 renal) of the same compound?
Answer: 95.9 µM

Question: And the TGI (TK-10 renal)?
Answer: > 100 µM

Question: And the TGI (SK-MEL-2 melanoma)?
Answer: > 100 µM

Question: What about the TGI (UACC-62 melanoma) of the same compound?
Answer: 70.4 µM

Question: What about the TGI (HOP-62 NSCLC) of the same compound?
Answer: > 100 µM

Question: And the TGI (COLO 205 colon)?
Answer: > 100 µM

Question: What about the TGI (SF-268 CNS) of the same compound?
Answer: > 100 µM

Question: And the TGI (HT29 colon)?
Answer: > 100 µM

Question: What about the TGI (IGROV1 ovarian) of the same compound?
Answer: > 100 µM

Question: And the TGI (U251 CNS)?
Answer: > 100 µM

Question: What about the TGI (HCT-15 colon) of the same compound?
Answer: > 100 µM

Question: What about the TGI (SK-MEL-5 melanoma) of the same compound?
Answer: 46.5 µM

Question: And the TGI (SR leukemia)?
Answer: > 100 µM

Question: And the TGI (SNB-19 CNS)?
Answer: > 100 µM

Question: What about the TGI (ACHN renal) of the same compound?
Answer: 58.4 µM

Question: What about the TGI (SNB-75 CNS) of the same compound?
Answer: > 100 µM

Question: What about the TGI (HL-60(TB) leukemia) of the same compound?
Answer: 98.7 µM

Question: What about the TGI (786-0 renal) of the same compound?
Answer: > 100 µM

Question: What about the TGI (HS 578T breast) of the same compound?
Answer: > 100 µM

Question: And the TGI (LOX IMVI melanoma)?
Answer: 35 µM

Question: What about the TGI (BT-549 breast) of the same compound?
Answer: > 100 µM

Question: And the TGI (NCI/ADR-RES ovarian)?
Answer: > 100 µM

Question: And the TGI (MALME-3M melanoma)?
Answer: 88.2 µM

Question: What about the TGI (M14 melanoma) of the same compound?
Answer: > 100 µM

Question: What about the TGI (EKVX NSCLC) of the same compound?
Answer: > 100 µM

Question: What about the TGI (OVCAR-5 ovarian) of the same compound?
Answer: > 100 µM

Question: And the TGI (OVCAR-4 ovarian)?
Answer: > 100 µM

Question: What about the TGI (SF-295 CNS) of the same compound?
Answer: > 100 µM

Question: And the TGI (K-562 leukemia)?
Answer: 85.3 µM

Question: What about the TGI (A498 renal) of the same compound?
Answer: > 100 µM

Question: What about the TGI (HCC-2998 colon) of the same compound?
Answer: 33.1 µM

Question: And the TGI (PC-3 prostate)?
Answer: > 100 µM

Question: And the TGI (SK-MEL-28 melanoma)?
Answer: > 100 µM

Question: What about the TGI (SK-OV-3 ovarian) of the same compound?
Answer: > 100 µM

Question: What about the TGI (A549 NSCLC) of the same compound?
Answer: > 100 µM

Question: What about the TGI (SF-539 CNS) of the same compound?
Answer: > 100 µM

Question: What about the TGI (NCI-H226 lung) of the same compound?
Answer: 82.8 µM

Question: And the TGI (SW-620 colon)?
Answer: > 100 µM

Question: What about the TGI (KM12 colon) of the same compound?
Answer: > 100 µM

Question: What about the TGI (MDA-N) of the same compound?
Answer: > 100 µM

Question: What about the TGI (MOLT-4 leukemia) of the same compound?
Answer: 39.9 µM

Question: And the TGI (T-47D breast)?
Answer: > 100 µM

Question: What about the TGI (MDA-MB-231 breast) of the same compound?
Answer: > 100 µM

Question: What about the TGI (OVCAR-8 ovarian) of the same compound?
Answer: > 100 µM

Question: And the TGI (SN12C renal)?
Answer: > 100 µM

Question: What about the TGI (OVCAR-3 ovarian) of the same compound?
Answer: 72.8 µM

Question: What about the TGI (RXF 393 renal) of the same compound?
Answer: > 100 µM

Question: What about the TGI (NCI-H522 lung) of the same compound?
Answer: > 100 µM

Question: And the TGI (NCI-H460 lung)?
Answer: > 100 µM

Question: And the TGI (CAKI-1 renal)?
Answer: > 100 µM

Question: What about the TGI (DU-145 prostate) of the same compound?
Answer: > 100 µM

Question: What about the TGI (CCRF-CEM leukemia) of the same compound?
Answer: 37.2 µM

Question: And the TGI (HCT-116 colon)?
Answer: > 100 µM

Question: What about the TGI (UACC-257 melanoma) of the same compound?
Answer: 52.9 µM

Question: And the TGI (HOP-92 NSCLC)?
Answer: > 100 µM

Question: And the TGI (NCI-H23 lung)?
Answer: > 100 µM

Question: What about the TGI (RPMI-8226 leukemia) of the same compound?
Answer: 66.4 µM
